Measurements: PubChem BioAssay (NCI)
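Protocol summary: plate cells (96-well), add compound at 5 concentrations, incubate 48 h, interpolate endpoints linearly. GI50: concentration for 50% inhibition of growth. TGI denotes the concentration required for complete inhibition of growth.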

Columns and labels:
Test in all cases: NCI anticancer screen, dose series, 48 h
SF-295 CNS = system: SF-295 CNS
SF-268 CNS = system: SF-268 CNS
OVCAR-5 ovarian = system: OVCAR-5 ovarian
BT-549 breast = system: BT-549 breast
OVCAR-4 ovarian = system: OVCAR-4 ovarian
UACC-62 melanoma = system: UACC-62 melanoma
TK-10 renal = system: TK-10 renal
A549 NSCLC = system: A549 NSCLC
U251 CNS = system: U251 CNS
COLO 205 colon = system: COLO 205 colon

Compound | TGI (SF-295 CNS) [µM] | TGI (SF-268 CNS) [µM] | TGI (OVCAR-5 ovarian) [µM] | TGI (BT-549 breast) [µM] | TGI (OVCAR-4 ovarian) [µM] | TGI (UACC-62 melanoma) [µM] | TGI (TK-10 renal) [µM] | TGI (A549 NSCLC) [µM] | TGI (U251 CNS) [µM] | TGI (COLO 205 colon) [µM] | GI50 (SF-268 CNS) [µM] | GI50 (OVCAR-5 ovarian) [µM] | GI50 (OVCAR-4 ovarian) [µM] | GI50 (UACC-62 melanoma) [µM] | GI50 (TK-10 renal) [µM] | GI50 (U251 CNS) [µM]
C=C(C)C1(Sc2ccc(OC)cc2)CC1 | 71 | 67 | > 100 | 58 | > 100 | > 100 | > 100 | > 100 | > 100 | 60.1 | – | – | – | – | – | –
Cc1ccc(C)n1-c1ccccc1C1C=Cn2c(=O)oc3c(OC(C)C)c(OC(C)C)c(O)c1c32 (centres undefined) | > 100 | > 100 | > 100 | > 100 | > 100 | > 100 | > 100 | > 100 | > 100 | 30.9 | – | – | – | – | – | –
COc1cc2nc(-c3cccs3)nc(Nc3ccccc3C(=O)NN)c2cc1OC | > 100 | > 100 | > 100 | > 100 | > 100 | > 100 | > 100 | > 100 | > 100 | > 100 | – | – | – | – | – | –
O=S(=O)(O)c1cc(S(=O)(=O)O)c2cc(N=Nc3ccc(N=Nc4ccc(/C=C/c5ccc(N=[N+]([O-])c6ccc(/C=C/c7ccc(N=Nc8ccc(N=Nc9ccc%10cc(S(=O)(=O)O)cc(S(=O)(=O)O)c%10c9)cc8)cc7S(=O)(=O)O)c(S(=O)(=O)O)c6)cc5S(=O)(=O)O)c(S(=O)(=O)O)c4)cc3)ccc2c1 | > 74.3 | > 100 | > 100 | – | > 100 | 65.4 | – | > 100 | > 100 | > 100 | – | – | – | – | – | –
CSc1ccc(N2C(=O)C3c4[nH]c5ccccc5c4C4CCC(C(C)(C)C)CC4C3C2=O)cc1 (centres undefined) | 33.4 | 45.4 | > 100 | – | 24.9 | 28.9 | 40.5 | 33.5 | 31.5 | 25.2 | – | – | – | – | – | –
OCc1ccc2c(c1)CC1(Cc3ccccc3C1)C2 | 40.6 | 40.9 | – | 24.1 | > 100 | 60.2 | 61.5 | 71.2 | – | 31.2 | – | – | – | – | – | –
CCOc1ccccc1N=NC1C(=O)N(C(=O)CC(=O)Nc2ccccc2C)N=C1C (centres undefined) | 36 | 63.6 | > 100 | > 100 | > 100 | > 100 | > 100 | > 100 | 49.1 | > 100 | – | – | – | – | – | –
CCOC(=O)c1ccc2nc3n(c2c1)C(c1c(F)cccc1F)SC3 (centres undefined) | > 100 | > 100 | > 100 | > 100 | > 100 | > 100 | > 100 | > 100 | > 100 | > 100 | – | – | – | – | – | –
COC1C(O)C(C)OC(O[C@H]2CC[C@@]3(C)C(CC[C@@H]4[C@@H]3CC[C@]3(C)[C@@H](C(C)OC5OC(CO)C(O)C(O)C5O)CC[C@]43O)C2)C1O (some centres undefined) | > 25 | > 25 | > 25 | – | > 25 | > 25 | > 25 | > 25 | > 25 | – | – | – | – | – | – | –
COC(=O)NC(Cc1ccccc1)NC(=O)OC(C)(C)C (centres undefined) | > 100 | > 100 | > 100 | > 100 | > 100 | > 100 | > 100 | > 100 | > 100 | > 100 | – | – | – | – | – | –
Clc1ccc(C2SCc3nc4ccccc4n32)cc1 (centres undefined) | > 100 | 88.4 | – | – | – | 43.6 | > 100 | – | 66.2 | 36.8 | – | – | – | – | – | –
N=c1ncn(C/C=C/c2ccccc2)c2nc[nH]c12 | > 100 | > 100 | > 100 | > 100 | > 100 | > 100 | > 100 | > 100 | > 100 | > 100 | – | – | – | – | – | –
CCCCCCCCCCCC(=O)N(CCCCCCCCC)CC(O)C(O)C(OC1OC(CO)C(O)C(O)C1O)C(O)CO (centres undefined) | 40 | 39.3 | 49.3 | 36.9 | 49.6 | 34.1 | 29.8 | 43.5 | 35.5 | 36.9 | – | – | – | – | – | –
COCC(C#N)NC1CC(OC2CC(O)(C(=O)CO)Cc3c(O)c4c(c(O)c32)C(=O)c2c(OC)cccc2C4=O)OC(C)C1O (centres undefined) | 1.9 | 0.691 | 2.54 | 0.653 | 2.08 | 0.21 | 2.42 | – | 0.86 | 0.471 | – | – | – | – | – | –
N#CCCN(CCCCN(CCC#N)C(=O)Nc1ccccc1)C(=O)Nc1ccccc1 | > 100 | > 100 | > 100 | > 100 | > 100 | > 100 | – | > 100 | > 100 | > 100 | – | – | – | – | – | –
O/N=C1\C/C(=N\O)c2c(Br)sc(Br)c21 | > 100 | 96.5 | – | > 100 | > 100 | > 100 | > 100 | > 100 | > 100 | > 100 | – | – | – | – | – | –
CC(=O)/C=C(/C)[O-].CC(=O)/C=C(/C)[O-].CC(=O)[CH-]C(C)=O.CC(=O)[CH-]C(C)=O.[Zr+4] | – | > 100 | > 100 | – | > 100 | > 100 | > 100 | – | > 100 | – | > 100 | > 100 | > 100 | > 100 | > 100 | > 100
CCCN=C1NC(C)=CSC(Nc2ccccc2)=C1C#N | > 100 | > 100 | > 100 | – | > 100 | > 100 | > 100 | > 100 | > 100 | > 100 | – | – | – | – | – | –
NC1(c2cc3ccccc3s2)CCCCCC1 | 32.5 | – | 28.7 | 32.6 | 27.7 | 31.9 | 28.8 | 34.2 | 29.1 | 26.5 | – | – | – | – | – | –
COC(=O)N[C@@H]1C[C@H]2CC[C@]1(O[Si](C(C)C)(C(C)C)C(C)C)C(=O)C2 | 39.7 | 28.6 | 45.3 | – | 33.8 | 44.7 | 30.6 | 55.7 | – | > 100 | – | – | – | – | – | –
